Laboratory results from patent US5010058A, “3,5,6-substituted derivatives of 1,2-O-isopropylidene-α,D-glucofuranose and intermediates for preparing these derivatives” (501 Greenwich Pharmaceuticals Incorporated, priority 1989, dated 1991).
Like-named read-outs stand apart in the source and are kept apart here.

Tested on: normal spleen cells / splenic T-lymphocytes (Con-A stimulated)
Assay: Con-A blastogenic response of normal spleen cells (3H-thymidine incorporation)
Type: cell-based, mouse (C57Bl/6)
Settings: for Blastogenic response of normal spleen cells to Con-A; % effect / inhibition at 1 µg/mL / inhibition at 10 µg/mL / inhibition at 25 µg/mL / inhibition at 100 µg/mL / inhibition at 300 µg/mL / inhibition at 750 µg/mL: percent change from no compound; for Blastogenic response of normal spleen cells to Con-A; % effect: 4320 min; for Blastogenic response of normal spleen cells to Con-A: triplicates ± SD; for inhibition at 1 µg/mL / inhibition at 10 µg/mL / inhibition at 25 µg/mL / inhibition at 100 µg/mL / inhibition at 300 µg/mL / inhibition at 750 µg/mL: Mus musculus, T-lymphocyte, 72 h, read-out: Blastogenic response of normal spleen cells to Con-A, % effect
Excerpt: A simple method is used to screen compounds for their ability to modulate T-lymphocyte activity which comprises assessing the capacity of the compounds to alter the activation of murine spleen cells in response to T-lymphocyte mitogen activators, such as concanavalin-A (Con-A). The method used to measure the effects of the compounds of the present invention on the blastogenic response of spleen cells to the T-lymphocyte mitogen, (i.e., Con-A), is as follows.
Spleen cells were removed from normal C57Bl/6 mice and homogenized to obtain a single cell suspension. Erythrocytes were lysed by hypotonic shock. Upon determination of the viability and concentration of the remaining lymphoid cells, they were adjusted to a concentration of 4×10^6 /ml. These spleen cells (2×10^5 cells per […]) were seeded into wells of microtiter plates with the compounds of the present invention having the following dose concentrations:
Con-A was also added to these cultures at a final concentration of […]. These cells were cultured for 3 days at 37° C. in a humidified atmosphere of 5% CO2 in air. For the last 18 hours of culture, […] H-thymidine was added to each well. The cells were then precipitated by a multichannel harvester. The amount of ^3 H-thymidine incorporated by the cultured cells were measured in a liquid scintillation counter (Disintegrations per min., DPM). All assays were conducted in triplicate.
The incubation medium used for the blastogenesis assays was RPMI-1640 medium containing 10% fetal bovine serum, […] streptomycin, 100 U/ml penicillin, […] Hepes buffer solution, 5×10^-5 M 2-mercaptoethanol and 2 mM glutamine.
^a Experimental compounds were first suspended in DMSO or ethanol,
^b The effect of experimental compounds on the blastogenic response o

[1] = Con-A 1 ug/ml, compound 1 ug/ml
[2] = Con-A 1 ug/ml, compound 10 ug/ml
[3] = Con-A 1 ug/ml, compound 25 ug/ml
[4] = Con-A 1 ug/ml, compound 100 ug/ml
[5] = Con-A 1 ug/ml, compound 300 ug/ml
[6] = Con-A 1 ug/ml, compound 750 ug/ml
[7] = Con-A 4 ug/ml, compound 1 ug/ml
[8] = Con-A 4 ug/ml, compound 10 ug/ml
[9] = Con-A 4 ug/ml, compound 25 ug/ml
[10] = Con-A 4 ug/ml, compound 100 ug/ml
[11] = Con-A 4 ug/ml, compound 300 ug/ml
[12] = Con-A 4 ug/ml, compound 750 ug/ml

Compound	Blastogenic response of normal spleen cells to Con-A [1]	Blastogenic response of normal spleen cells to Con-A [2]	Blastogenic response of normal spleen cells to Con-A [3]	Blastogenic response of normal spleen cells to Con-A [4]	Blastogenic response of normal spleen cells to Con-A [5]	Blastogenic response of normal spleen cells to Con-A [6]	Blastogenic response of normal spleen cells to Con-A [7]	Blastogenic response of normal spleen cells to Con-A [8]	Blastogenic response of normal spleen cells to Con-A [9]	Blastogenic response of normal spleen cells to Con-A [10]	Blastogenic response of normal spleen cells to Con-A [11]	Blastogenic response of normal spleen cells to Con-A [12]	inhibition at 1 µg/mL [1] [%]	inhibition at 10 µg/mL [2] [%]	inhibition at 25 µg/mL [3] [%]	inhibition at 100 µg/mL [4] [%]	inhibition at 300 µg/mL [5] [%]	inhibition at 750 µg/mL [6] [%]	inhibition at 1 µg/mL [7] [%]	inhibition at 10 µg/mL [8] [%]	other results
CCCCCCCNC[C@H]1OC(C)(C)O[C@@H]2[C@H]3OC(C)(C)O[C@H]3O[C@@H]21 [Ex. 1, 1,2:3,5-Di-O-isopropylidene-6-deoxy-6-aminoheptyl-α, D-glucofuranose]	93,328 ± 15,583 cpm	53,439 ± 9,464 cpm	26,920 ± 10,528 cpm	10,705 ± 9,501 cpm	5,398 ± 4,008 cpm	19,688 ± 7,148 cpm	116,263 ± 2,521 cpm	32,032 ± 1,999 cpm	6,201 ± 1,410 cpm	4,880 ± 3,619 cpm	3,097 ± 573 cpm	2,089 ± 35 cpm	–	–	–	–	–	–	–	–	Blastogenic response of normal spleen cells to Con-A; % effect [1]: +29%; Blastogenic response of normal spleen cells to Con-A; % effect [2]: -26%; Blastogenic response of normal spleen cells to Con-A; % effect [3]: -63%; Blastogenic response of normal spleen cells to Con-A; % effect [4]: -85%; Blastogenic response of normal spleen cells to Con-A; % effect [5]: -93%; Blastogenic response of normal spleen cells to Con-A; % effect [6]: -87%; Blastogenic response of normal spleen cells to Con-A; % effect [7]: +20%; Blastogenic response of normal spleen cells to Con-A; % effect [8]: -67%; Blastogenic response of normal spleen cells to Con-A; % effect [9]: -94%; Blastogenic response of normal spleen cells to Con-A; % effect [10]: -95%; Blastogenic response of normal spleen cells to Con-A; % effect [11]: -97%; Blastogenic response of normal spleen cells to Con-A; % effect [12]: -98%
CCCCCCCNCC(O)C1OC2OC(C)(C)OC2C1OCCCCCCC [Ex. 4, 1,2-O-Isopropylidene-3-O-(n-heptyl)-6-deoxy-6-aminoheptyl-α, D-glucofuranose]	22,026 ± 9,838 cpm	3,406 ± 422 cpm	3,575 ± 827 cpm	5,241 ± 2,071 cpm	9,102 ± 6,857 cpm	3,762 ± 1,201 cpm	41,151 ± 9,885 cpm	7,789 ± 7,636 cpm	13,114 ± 8,696 cpm	7,102 ± 6,851 cpm	4,919 ± 645 cpm	3,128 ± 99 cpm	70	95	95	93	87	95	58	92	inhibition at 25 µg/mL [9]: 86%; inhibition at 100 µg/mL [10]: 93%; inhibition at 300 µg/mL [11]: 95%; inhibition at 750 µg/mL [12]: 97%
CCCCCCCOC(C)C1OC2OC(C)(C)OC2C1O [Ex. 5, 1,2-O-Isopropylidene-5-O-n-heptyl-6-deoxy α, D-glucofuranose]	91,612 ± 15,530 cpm	79,822 ± 15,967 cpm	63,177 ± 13,102 cpm	8,553 ± 9,274 cpm	8,698 ± 786 cpm	9,487 ± 7,951 cpm	116,377 ± 12,433 cpm	92,190 ± 13,256 cpm	62,068 ± 3,736 cpm	2,299 ± 490 cpm	5,932 ± 2,770 cpm	4,494 ± 2,952 cpm	-27	-11	13	88	88	87	-20	5	inhibition at 25 µg/mL [9]: 36%; inhibition at 100 µg/mL [10]: 98%; inhibition at 300 µg/mL [11]: 94%; inhibition at 750 µg/mL [12]: 95%
